Experimental findings from patent US4215069A, “Arylthiovinylcyclopropanecarboxylate intermediates” (FMC Corporation, priority 1979, dated 1980) are described below.

What all share (assay type): in vivo
The subject of test [1] is milkweed bug (Oncopeltus faciatus [Dallas]). In words: Initial contact activity against milkweed bug (percent kill). As to conditions: 72 hours exposure, read-out: Percent Kill MWB, initial activity. The method, then: (§1) The test compound was dissolved in a small amount of acetone, and the acetone solution was dispersed in water containing one drop of isooctylphenyl polyethoxyethanol to make a solution having 1250 ppm (w/w) active ingredient. Aliquots of this solution were diluted with an appropriate amount of water to provide solutions containing various concentrations of active ingredient. Test organisms and techniques were as follows: the activity against Mexican bean beetle (Epilachna varivestis Muls.) and southern armyworm (Spodoptera eridania [Cram.]) was evaluated by dipping the leaves of pinto bean plants into the test solution and infesting the leaves with the appropriate immature-form insects when the foliage had dried. The activity against the pea aphid (Acyrthosiphon pisum [Harris]) was evaluated on broad bean plants whose leaves were dipped before infestation with adult aphids. The activity against twospotted spider mites (Tetranychus urticae Koch) was evaluated on pinto bean plants whose leaves were dipped after infestation with adult mites. The activity against the milkweed bug (Oncopeltus faciatus [Dallas]) was evaluated by spraying the test solutions into glass dishes or jars containing the adult insects. Following application of the compound and infestation the tests were maintained in a holding room at 80° F. and 50% relative humidity for an exposure period of 72 hours. At the end of this time the dead and living insects or mites were counted and the percent kill was calculated. Results of these tests are summarized in Table I. Most of the compounds tested were active against all the insects.

Test [2] concerns Mexican bean beetle (Epilachna varivestis Muls.). In words: Initial contact activity against Mexican bean beetle (percent kill). The following applies: 72 hours exposure, read-out: Percent Kill MBB, initial activity. The method, then:
as §1

Test [3] relates to southern armyworm (Spodoptera eridania [Cram.]). In words: Initial contact activity against southern armyworm (percent kill). The following applies: 72 hours exposure, read-out: Percent Kill AW, initial activity. The method, then: as §1
For test [4], the system named is pea aphid (Acyrthosiphon pisum [Harris]). In words: Initial contact activity against pea aphid (percent kill). The following applies: 72 hours exposure, read-out: Percent Kill PA, initial activity. The protocol:
as §1

Test [5] concerns twospotted spider mites (Tetranychus urticae Koch). In words: Initial contact activity against twospotted spider mite (percent kill). The following applies: 72 hours exposure, read-out: Percent Kill SM, initial activity. The protocol: as §1

`CC1(C)C(C=C(Br)Sc2ccccc2)C1C(=O)OCc1cccc(Oc2ccccc2)c1` (mixture of isomers) [Example 10, 3-phenoxybenzyl cis,trans-3-[2-(E,Z)-bromo-2-phenylthioethenyl]-2,2-dimethylcyclopropanecarboxylate]: the mortality at 78 ppm came out at 5% in test [1], 95% in test [2], 0% in test [3] and 24% in test [4]. The mortality at 312 ppm is 71% in test [1], 94% in test [2], 44% in test [3] and 94% in test [4]. Moreover, the mortality at 1250 ppm in test [1] worked out at 100%; in test [3] it was 100%; in test [4] it was 95%; in test [5], 81%. Moreover, in test [2], the mortality at 20 ppm came out at 72%.

As for `CC1(C)C(C=C(Cl)Sc2ccc(F)cc2)C1C(=O)OC(C#N)c1cccc(Oc2ccccc2)c1` (mixture of isomers) [Example 8, α-cyano-3-phenoxybenzyl cis,trans-3-[2-(E,Z)-chloro-2-(4-fluorophenylthio)ethenyl]-2,2-dimethylcyclopropanecarboxylate], the mortality at 78 ppm in test [1] was 75%; in test [2], 100%; in test [3], 40%; in test [4], 46%. The mortality at 312 ppm in test [1] amounted to 100%; in test [2], 100%; in test [3] it was 80%; in test [4] it was 94%. The mortality at 1250 ppm was 100% in test [1], 90% in test [3], 93% in test [4] and 100% in test [5]. In addition, in test [2], the mortality at 20 ppm came to 100%.

Consider `CC1(C)C(C=C(Cl)Sc2ccccc2)C1C(=O)OC(c1cccc(Oc2ccccc2)c1)C(F)(F)F` (mixture of isomers) [Example 7, α-trifluoromethyl-3-phenoxybenzyl cis,trans-3-[2-(E,Z)-chloro-2-phenylthioethenyl]-2,2-dimethylcyclopropanecarboxylate], for which the mortality at 78 ppm in test [1] amounted to 5%; in test [2], 100%; in test [3], 0%; in test [4], 94%. For the same compound, the mortality at 312 ppm in test [1] came out at 32%; in test [2], 100%; in test [3], 0%; in test [4] it was 100%. Further, the mortality at 1250 ppm was 100% in test [1], 0% in test [3], 100% in test [4] and 62% in test [5]. In test [2], the mortality at 20 ppm was 90%.

As for `CC1(C)C(C=CSc2ccc(F)cc2)C1C(=O)OCc1cccc(Oc2ccccc2)c1` (mixture of isomers) [Example 5, 3-phenoxybenzyl cis,trans-3-[2-(E,Z)-(4-fluorophenylthio)ethenyl]-2,2-dimethylcyclopropanecarboxylate], the mortality at 78 ppm in test [1] was 0%; in test [2] it was 35%; in test [3] it was 0%; in test [4] it was 0%; in test [5], 0%. The mortality at 312 ppm in test [1] is 5%; in test [2], 95%; in test [3], 0%; in test [4] it was 45%; in test [5] it was 0%. The mortality at 1250 ppm in test [1] came out at 15%; in test [3], 7%; in test [4] it was 35%; in test [5] it was 0%. The mortality at 20 ppm in test [2] turned out to be 33%.

`CC1(C)C(C=C(Cl)Sc2ccc(Cl)cc2)C1C(=O)OCc1cccc(Oc2ccccc2)c1` (mixture of isomers) [Example 9, 3-phenoxybenzyl cis,trans-3-[2-(E,Z)-chloro-2-(4-chlorophenylthio)ethenyl]-2,2-dimethylcyclopropanecarboxylate]: the mortality at 78 ppm in test [1] turned out to be 0%; in test [2], 100%; in test [3], 0%; in test [4], 71%. Further, the mortality at 312 ppm in test [1] stood at 70%; in test [2], 100%; in test [3] it was 0%; in test [4], 100%. Besides, the mortality at 1250 ppm is 90% in test [1], 20% in test [3], 100% in test [4] and 0% in test [5]. In addition, the mortality at 20 ppm in test [2] was 100%.

Consider `CC1(C)C(C=CSc2ccc(F)cc2)C1C(=O)OC(C#N)c1cccc(Oc2ccccc2)c1` (mixture of isomers) [Example 6, α-cyano-3-phenoxybenzyl cis,trans-3-[2-(E,Z)-(4-fluorophenylthio)ethenyl]-2,2-dimethylcyclopropanecarboxylate], for which the mortality at 78 ppm in test [1] is 5%; in test [2], 94%; in test [3], 0%; in test [4], 0%; in test [5], 0%. For the same compound, the mortality at 312 ppm in test [1] worked out at 38%; in test [2], 100%; in test [3], 0%; in test [4] it was 10%; in test [5], 0%. Also, the mortality at 1250 ppm worked out at 100% in test [1], 56% in test [3], 100% in test [4] and 0% in test [5]. Moreover, the mortality at 20 ppm in test [2] is 68%.
